Experimental data from US20240116832A1, “INHIBITORS OF SOIL NITRIFICATION AND PROCESSES TO PREVENT SAME” (Tessenderlo Group NV, priority 2019, published 2024).

System: soil nitrification: conversion of ammonium-N(NH4+) into nitrate-N(NO3−), Tujunga loamy sand
Settings: for nitrification inhibition (slowing the conversion of ammonium-N into nitrate-N), in words: text on Experiments 1 and 2
Description: Two soils were used in this experiment, a Tujunga loamy sand (thermic Typic Xeropsamments) collected in Dinuba, California along with a Clarion fine loam (mesic Typic Hapludolls), collected in Boone, Iowa.
Each soil was collected by hand from the top 15 mm of the soil profile and allowed to air-dry. Both soils were hand screened to remove large clumps and rocks that may have interfered with the experiment. Soil samples were taken before the start of the experiment and analyzed to assess the initial nutrient content and pH of the soil.
The experiments were made up of numerous individual plastic containers that each represented one (1) replicate of each fertilizer treatment and soil. All experiments were arranged as a completely randomized design consisting of 12-20 fertilizer treatments, two soils, with six replicates.
To begin the experiment, 200 g of the dried and screened soil was added to a 709 mL sealable plastic container. Distilled water was added to each container to bring the moisture level up to what would be considered optimal field moisture. It was important to determine this for each soil separately to ensure neither soil was too dry or too moist. This volume ranged from 15-25 ml per container with the Clarion soil being the highest. Once the appropriate amount of water was applied to each container, they were thoroughly stirred to ensure uniform mixing and to eliminate any clumps.
After the soil containers were filled and moistened, the individual liquid fertilizer treatments were prepared in a 100 ml Erlenmeyer flask. All treatments were applied as liquids to ensure uniform mixing and accurate applications. For some of the treatments a 20%-N urea solution was used as the primary nitrogen source. […]
All fertilizer treatments were made to the soil surface in each container using a micropipette at a nitrogen rate of 134.7 kg ha^−1 calculated on the surface area of each container which equals 125.8 cm^2. […]
Soil samples were initially taken at one (1) day after treatment (DAT). […] The difference in mass is recorded and used in later calculations. […]

Compound | nitrification inhibition (slowing the conversion of ammonium-N into nitrate-N), in words | "nitrate levels" (nitrite+nitrate levels) in the soil (after 8 weeks) [ppm]
N.N.O=S(=O)(O)O [ammonium sulfates, ammonium sulfate] | did not work | –
O=S([O-])O.[K+] [potassium bisulfite] | did not work | –
NC(N)=O [unprotected urea, Urea] | – | ≥ 300
